Experiments:
[1] = test system: mosquitoes; conditions: cited from earlier work
[2] = test system: female A. aegypti mosquitoes; assay: Repellency test, treated hand in cage of mosquitoes, time to first bite; type: in vivo; conditions: for Repellency: repellency time until first bite, solutions of 15 to 20% in ethanol applied to hand, cage with 20 female A. aegypti
Procedure: Repellency tests can be carried out in the laboratory, at a temperature of 20° C.±2° C. and a relative humidity of 50 to 60%. Temperature and relative humidity data should be monitored and recorded using a digital thermohygrometer during the experiments.
To perform the tests, there were used wooden cages with screens on the sides and glass on the upper face measuring 30 cm×30 cm×30 cm containing 20 female A. aegypti mosquitoes, all mated with no previous blood meal. The tests must be carried out during the daytime, respecting the preference for the mosquito's hematophagy activity.
For the tests, one of the hands of the analyzer must be sanitized with neutral soap and then the upper, lower, lateral face and the region between the fingers must be treated with repellent solutions in ethanol, in order for the compounds to have their repellency activities evaluated. […]
When the first bite occurs, the experiment is interrupted, and the time is recorded by a digital stopwatch.

Compound | Repellency [2] [h] | also measured
CCN(CC)C(=O)c1cccc(C)c1 [DEET, N,N-diethyl-3-methylbenzamide] | – | long-lasting effect (duration) ([1]; concentration of 20% to 30% of the compound): more than 6 hours
CCCCN(CCC(=O)OCC)C(C)=O [IR 3535, ethyl butylacetylaminopropionate] | – | effectiveness ([1]; used in a concentration above 10%): slightly lower compared to DEET
CCC(C)OC(=O)N1CCCCC1CCO (centres unmarked) [Icaridin] | – | protection (duration) ([1]; concentration of 20%): up to 10 hours; minimum concentration for repellent action ([1]; in vivo): 5%
CCCC(=O)OC(C)C(=O)N1CCCC1 (centres unmarked) [Input 2] | >10 | –
CCCC(=O)O[C@@H](C)C(=O)N(CC)CC [Input 3] | 2 | –
CCN(CC)C(=O)[C@H](C)OC(C)=O [Input 4] | 5 | –
CCCC(=O)O[C@@H](C)C(=O)N1CCCCC1 [Input 5] | >10 | –
C[C@H](O)C(=O)N1CCCC1 [Input 7] | 0 | –
CCCC(=O)O[C@@H](C)C(=O)N1CCCC1 [Input 8] | >12 | result in terms of repellency time (comparison within Table 1) ([2]; solutions of 15 to 20% in ethanol): best result in terms of repellency time

Reference: patent publication US20230225321A1, “ARTHROPOD REPELLENTS OBTAINED BY CHEMICALLY CONVERTING LACTIC ACID, LACTATES OR OTHER LACTIC ACID DERIVATIVES” (UNIVERSIDADE FEDERAL DO PARANA, priority 2020, published 2023)
